Measured values taken from patent US11440913B2, “Aminoimidazopyridazines as kinase inhibitors” (BRISTOL-MYERS SQUIBB COMPANY, priority 2017, dated 2022).
Counter-ions that a name gives are not always drawn. Like-named read-outs stand apart in the source and are kept apart here.

Assays:
[1] = molecular target: His-GST-TVMV-hRIPK1(1-324) (Homo sapiens (Human), UniProt Q13546); test: RIPK1 HTRF Binding Assay; details: HTRF binding, 1 h at rt; read-out: RIPK1 (IC50)
In short: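 HTRF probe-displacement binding: 1 nM His-GST-TVMV-hRIPK1(1-324) (baculovirus construct), 90.6 nM probe, 0.2 nM anti-GST-Tb in 20 mM HEPES, 10 mM MgCl2, 0.015% Brij-35, 4 mM DTT, 0.05 mg/mL BSA. Incubated 1 h at rt; FRET 520/495 nm ratio, inhibition relative to DMSO-only wells.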

[2] = system: MLKL phosphorylation in HT29-L23 human colorectal adenocarcinoma cells; test: MLKL Phosphorylation High-Content Assay; format: cell-based; details: 6 h, necroptosis induced with TNFα, SMAC mimetic and Z-VAD, read-out: pMLKL (IC50)
In short: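 HT29-L23 cells pretreated 30 min at 37 °C with compound (6.25 to 0.106 μM final), then necroptosis induced with TNFα 35 ng/mL, SMAC mimetic 700 nM and Z-VAD 140 nM for 6 h. Fixed cells immunostained for MLKL pS358 and imaged; IC50 and Ymax from 4-parameter logistic fit.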

Sequence of His-GST-TVMV-hRIPK1(1-324) (Q13546 1-324): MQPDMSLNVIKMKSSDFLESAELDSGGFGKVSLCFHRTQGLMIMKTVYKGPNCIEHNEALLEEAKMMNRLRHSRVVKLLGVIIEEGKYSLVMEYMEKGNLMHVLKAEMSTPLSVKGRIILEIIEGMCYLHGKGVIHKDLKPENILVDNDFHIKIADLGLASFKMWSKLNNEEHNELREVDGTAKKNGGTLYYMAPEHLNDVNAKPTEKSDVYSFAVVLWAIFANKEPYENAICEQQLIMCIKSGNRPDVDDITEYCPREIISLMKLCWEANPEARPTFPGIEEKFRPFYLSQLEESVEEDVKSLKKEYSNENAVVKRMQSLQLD

CC(=O)Nc1cn2nc(-c3cc(C(=O)NCc4ccccc4OC(F)(F)F)c(C)nc3C)ccc2n1 [Example 89, 5-{2-acetamidoimidazo[1,2-b]pyridazin-6-yl}-2,6-dimethyl-N-{[2-(trifluoro-methoxy)phenyl]methyl}pyridine-3-carboxamide]
IC50 [1]: 38 nM
IC50 ([2]; Homo sapiens): 88 nM

COc1ncc(-c2ccc3nc(NC(C)=O)cn3n2)cc1C(=O)NCc1cc(F)cc(F)c1OCC1CC1 [Example 121, N-({2-[cyclopropyl(deutero)methoxy]-3,5-difluorophenyl}methyl)-5-{2-acetamidoimidazo[1,2-b]pyridazin-6-yl}-2-methoxypyridine-3-carboxamide]
IC50 [1]: 3 nM
IC50 [2]: 9 nM

Cc1ncc(-c2ccc3nc(NC(=O)CO)cn3n2)cc1C(=O)NCc1cc(OC(F)(F)F)ccc1F [Example 39, N-{[2-fluoro-5-(trifluoromethoxy)phenyl]methyl}-5-[2-(2-hydroxyacetamido)imidazo[1,2-b]pyridazin-6-yl]-2-methylpyridine-3-carboxamide]
IC50 [1]: 55 nM
IC50 ([2]; Homo sapiens): 119 nM

CC(=O)Nc1cn2nc(-c3cc(F)c(F)c(C(=O)N[C@H](C)c4cc(OC(F)(F)F)ccc4F)c3)ccc2n1 [Example 367, 5-{2-acetamidoimidazo [1,2-b]pyridazin-6-yl}-2,3-difluoro-N-[(1R)-1-[2-fluoro-5-(trifluoromethoxy)phenyl]ethyl] benzamide]
IC50 [1]: 56 nM
IC50 ([2]; Homo sapiens): 194 nM

CC(=O)Nc1cn2nc(-c3cc(F)cc(C(=O)NCC[C@@H](O)c4ccc(Cl)cc4)c3)ccc2n1 [Example 370, N-[(3R)-3-(4-chlorophenyl)-3-hydroxypropyl]-3-{2-acetamidoimidazo [1,2-b]pyridazin-6-yl}-5-fluorobenzamide]
IC50 [1]: 34 nM
IC50 ([2]; Homo sapiens): 210 nM

CC(=O)Nc1cn2nc(-c3cnc(C)c(C(=O)NCc4cccc(OCC(F)(F)F)c4)c3)ccc2n1 [Example 194, 5-{2-acetamidoimidazo[1,2-b]pyridazin-6-yl}-2-methyl-N-{[3-(2,2,2-trifluoroethoxy)phenyl]methyl}pyridine-3-carboxamide]
IC50 [1]: 100 nM
IC50 ([2]; Homo sapiens): 141 nM

CC(=O)Nc1cn2nc(-c3cncc(C(=O)NCc4ccccc4OCC4CC4)c3)ccc2n1 [Example 239, N-{[2-(cyclopropylmethoxy)phenyl]methyl}-5-{2-acetamidoimidazo [1,2-b]pyridazin-6-yl}pyridine-3-carboxamide]
IC50 [1]: 13 nM
IC50 ([2]; Homo sapiens): 158 nM

CCC(=O)Nc1cn2nc(-c3cnc(OC)c(C(=O)NCc4ccccc4OC(F)(F)F)c3)ccc2n1 [Example 248, 2-methoxy-5-{2-propanamidoimidazo[1,2-b]pyridazin-6-yl}-N-{[2-(trifluoromethoxy)phenyl]methyl}pyridine-3-carboxamide, TFA]
IC50 [1]: 13 nM
IC50 ([2]; Homo sapiens): 55 nM

COc1ncc(-c2ccc3nc(NC(C)=O)c(C)n3n2)cc1C(=O)NCc1ccc(F)c(OC(F)(F)F)c1 [Example 255, 5-{2-acetamido-3-methylimidazo[1,2-b]pyridazin-6-yl}-N-{[4-fluoro-3-(trifluoromethoxy)phenyl]methyl}-2-methoxypyridine-3-carboxamide]
IC50 [1]: 87 nM
IC50 ([2]; Homo sapiens): 263 nM

[2H]C([2H])([2H])Oc1ncc(-c2ccc3nc(NC(C)=O)cn3n2)cc1C(=O)NCc1cc(F)cc(F)c1OC1CCOCC1 [Example 50, N-{[3,5-difluoro-2-(oxan-4-yloxy)phenyl]methyl}-5-{2-acetamidoimidazo[1,2-b]pyridazin-6-yl}-2-(D3)methoxypyridine-3-carboxamide]
IC50 [1]: 2 nM
IC50 ([2]; Homo sapiens): 2 nM

COc1ncc(-c2ccc3nc(NC(C)=O)c(C)n3n2)cc1C(=O)NCc1cc(C(F)(F)F)ccc1F [Example 254, 5-{2-acetamido-3-methylimidazo[1,2-b]pyridazin-6-yl}-N-{[2-fluoro-5-(trifluoromethyl)phenyl]methyl}-2-methoxypyridine-3-carboxamide]
IC50 [1]: 101 nM
IC50 ([2]; Homo sapiens): 66 nM
